Our source for the TGI and GI50 values is PubChem BioAssay (NCI).

Holding throughout (assay): NCI tumour cell line growth inhibition, 48 h
The test system of experiment [1] is SW-620 colon.
Experiment [2] has as its system HCT-15 colon.
In experiment [3] the test system is HL-60(TB) leukemia.
In experiment [4] the test system is KM12 colon.
Experiment [5] has as its system RXF 393 renal.
Experiment [6] relates to SNB-75 CNS.
In experiment [7] the test system is K-562 leukemia.
The subject of experiment [8] is SF-268 CNS.
The subject of experiment [9] is MDA-MB-435.

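Results reflect a 48-hour exposure of cells in 96-well plates to compound at five concentrations. The concentration for 50% growth inhibition is given as GI50. Definition used: TGI = concentration required for complete inhibition of growth.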 Where only a bound is given, the exact number is not on record here.

Regarding `CCOC(=O)Cn1c(=O)c2nc(SC)sc2n(CC)c1=S`, the TGI is greater than 100 µM in experiment [1]; greater than 100 µM in experiment [2]; greater than 100 µM in [3]; greater than 100 µM in [4]; greater than 100 µM in experiment [5]; 52.4 µM in [6]. Moreover, the TGI in experiment [7] is greater than 100 µM; in experiment [8], greater than 100 µM; in [9] it was 3.2 µM.

On to `O=c1c2nc3ccccc3c(=O)n2ncn1-c1ccccc1Cl`, for which the TGI in experiment [1], in [2], in experiment [3], in experiment [4], in experiment [6] and in experiment [7] was greater than 100 µM in each case. The TGI in experiment [8] and in experiment [9] was greater than 100 µM throughout.

Consider `S=C1N(/N=C/c2c3ccccc3cc3ccccc23)C(=Nc2ccccc2)C(=Nc2ccccc2)N1c1ccccc1`, for which the TGI in experiment [1], in experiment [2], in experiment [4], in experiment [5], in experiment [7] and in experiment [8] was greater than 100 µM in each case. Also, in experiment [9], the TGI was greater than 100 µM.

For the molecule `CC[C@@H]1CC[C@@H]2[C@H](CC[C@]3(C)[C@@H](OS(=O)(=O)c4ccc(C)cc4)CC[C@@H]23)[C@H]1COS(=O)(=O)c1ccc(C)cc1`, the TGI in [1], in experiment [2], in [3], in experiment [5], in experiment [7] and in experiment [8] was greater than 100 µM throughout. Further, the TGI in experiment [9] was greater than 100 µM.

With `CN(C)CCNC(=O)c1cc([N+](=O)[O-])cc2c1Oc1ccccc1O2`, the TGI was greater than 100 µM in experiment [1]; greater than 100 µM in experiment [3]; greater than 100 µM in experiment [4]; 93.7 µM in [5]; 38.9 µM in [6]; greater than 100 µM in experiment [7]. The TGI in experiment [8] and in experiment [9] was greater than 100 µM in each case.

In the case of `Cc1cn(C2CC(O)C(COC(=O)NCCC(F)(F)C(F)(F)C(F)(F)C(F)(F)F)O2)c(=O)[nH]c1=O` (stereo not given), the TGI in experiment [1], in experiment [3], in experiment [4], in experiment [5], in experiment [6] and in experiment [7] was greater than 100 µM in each case. For the same molecule, the TGI in [8] and in [9] was greater than 100 µM in each case.

Turning to `Cc1cccc(N(C(=O)Nc2ccc(Cl)c(Cl)c2)C2=NCC(C)S2)c1` (stereo not given), the TGI in [1], in experiment [2], in experiment [3], in [4], in experiment [6] and in [7] was greater than 100 µM in each case. This molecule returned a TGI in experiment [8] greater than 100 µM.

Turning to `COc1cc2c(cc1OCCCCN1C(=O)c3cccc4cccc(c34)C1=O)N=C[C@@H]1CCCN1C2=O`, the TGI was greater than 38.8 µM in experiment [1]; 14.8 µM in experiment [2]; 13.2 µM in [4]; 3.63 µM in experiment [5]; greater than 100 µM in experiment [7]; greater than 100 µM in experiment [8]. In addition, the TGI in experiment [9] was greater than 35.6 µM.

Turning to `COC(=O)c1sc(=S)sc1SCc1ccc(CSc2sc(=S)sc2C(=O)OC)cc1`, the TGI in experiment [1], in experiment [2], in experiment [4], in experiment [5], in experiment [6] and in experiment [7] was greater than 100 µM throughout. Besides, the TGI in [8] and in experiment [9] was greater than 100 µM in each case.

For `COC(=O)C1CN=CN1CCc1ccccc1` (stereo not given), the TGI in [1], in experiment [2], in experiment [3], in [4], in experiment [5] and in experiment [6] was greater than 100 µM in each case. In addition, the TGI in [7] and in experiment [9] was greater than 100 µM each time.

Consider `O=C1NCc2ccccc2S(=O)(=O)n2cccc21`, for which the TGI in experiment [1], in experiment [2], in [3], in experiment [4], in experiment [6] and in [8] was greater than 100 µM throughout. The TGI in experiment [9] was greater than 100 µM.

In the case of `O=C1CSC(c2ccc([N+](=O)[O-])cc2)N1c1ccc(-n2c(-c3ccccc3)nc3ccccc3c2=O)cc1` (stereo not given), the TGI in experiment [1], in [2], in experiment [3], in experiment [4], in [7] and in experiment [8] was greater than 100 µM in each case. In experiment [9], this molecule yielded a TGI greater than 100 µM.

In the case of `CCCN(CCCc1ccccc1)CCc1ccc2[nH]c(=S)[nH]c2c1`, the TGI in [1] was greater than 100 µM; in experiment [2] it was greater than 100 µM; in experiment [4] it was greater than 100 µM; in experiment [5], 76.1 µM; in [6], 68.3 µM; in experiment [7], 29.3 µM. Besides, the TGI in [8] is greater than 100 µM; in experiment [9], 41.8 µM.

For `COc1cc2c(cc1OC)C(=O)/C(=C/c1ccc(Cl)cc1)CC2`, the TGI in [1], in [2], in experiment [3], in [4], in [5] and in experiment [7] was greater than 10 µM in each case. Further, the TGI in [8] and in experiment [9] was greater than 10 µM in each case.

With `CC(C)OCC1CC(CC(=O)Nc2nncs2)C(=O)O1` (stereo not given), the TGI in [1], in experiment [2], in [4], in [6], in experiment [7] and in experiment [8] was greater than 100 µM each time. This molecule also had a TGI in experiment [9] greater than 100 µM.

Consider `Cc1nn(C(=O)Cc2ccccc2)c2c1C(c1ccc(O)cc1O)SC(N)=N2` (stereo not given), for which the TGI in experiment [1], in experiment [2], in experiment [3], in experiment [4], in [6] and in [8] was greater than 100 µM each time. The same molecule yielded a TGI in experiment [9] greater than 100 µM.

As for `CCCCCCCCCCCCCCCCOCC(CC(F)(F)P(=O)(OCC)OCC)OC(C)=O` (stereo not given), the TGI was found to be 29.7 µM in [1]; 20.2 µM in experiment [2]; 23.8 µM in experiment [4]; 38.5 µM in experiment [5]; 32.9 µM in experiment [6]; 48.9 µM in experiment [7]. In addition, the TGI in experiment [8] was 27.5 µM; in [9], 33.9 µM.

Take `C[C@H](NC(=O)c1ccc(CNC(=O)/C=C/c2cccc(Oc3ccccc3)c2)cc1)c1ccccc1`: the TGI in experiment [1] was greater than 100 µM; in [2], greater than 100 µM; in experiment [4], greater than 100 µM; in experiment [5], 80.3 µM; in [6], 44.2 µM; in experiment [7], greater than 100 µM. Also, the TGI in experiment [8] and in [9] was greater than 100 µM throughout.

Consider `COc1cc(OC)nc(-n2c(N)c(C#N)c3ccc([N+](=O)[O-])cc3c2=O)n1`, for which the TGI in [1], in experiment [2], in [3], in experiment [4], in experiment [6] and in experiment [8] was greater than 100 µM each time. Besides, the TGI in experiment [9] is greater than 100 µM.

Consider `CCOC(=O)c1cn2c(n1)sc1c(Cl)c(Cl)ccc12`, for which the TGI in experiment [1] is greater than 100 µM; in experiment [2], greater than 100 µM; in experiment [4], greater than 58.2 µM; in [5], greater than 100 µM; in [6] it was 73.1 µM; in experiment [7] it was greater than 46.9 µM. The TGI is greater than 54.9 µM in [8] and 12.6 µM in [9].

With `CN1CNc2nc(N)n(C)c(=O)c2C1`, the TGI in [2], in experiment [3], in experiment [4], in [5], in experiment [6] and in experiment [7] was greater than 10 µM in each case. Also, the TGI in [8] and in [9] was greater than 10 µM throughout.

As to `Cc1ccc(N(C(=O)Nc2ccccc2)C2=NCC(C)S2)cc1C` (stereo not given), the TGI is 62.9 µM in [1]; 44.5 µM in experiment [2]; 63.7 µM in [3]; 40.5 µM in experiment [4]; 56.4 µM in experiment [6]; greater than 100 µM in [7]. For the same molecule, the TGI in [8] amounted to 69.8 µM.

On to `CC(C)(C)OC(=O)N1CCC(C(=O)O)CC1`, for which the TGI in [1], in experiment [2], in [3], in experiment [4], in experiment [6] and in experiment [8] was greater than 100 µM each time. The same molecule came in with a TGI in experiment [9] greater than 100 µM.

For `COc1ccc(CNC(=O)NCn2cc(-c3ccccc3)nn2)cc1`, the TGI in experiment [1], in [2], in experiment [3], in [4], in experiment [6] and in [7] was greater than 100 µM in each case. In addition, the TGI in experiment [8] and in experiment [9] was greater than 100 µM throughout.

For the molecule `CN1CCN(c2ncc3c(n2)sc2c(=O)n(-c4ccccc4)cnc23)CC1`, the TGI in experiment [1], in experiment [2], in experiment [4], in experiment [5], in experiment [6] and in experiment [7] was greater than 100 µM each time. Also, the TGI in experiment [8] and in experiment [9] was greater than 100 µM throughout.

On to `Cc1ccc(NC2=CC(=O)C(NO)c3ccccc32)cc1` (stereo not given), for which the TGI is greater than 100 µM in experiment [1]; 10.4 µM in experiment [2]; 4.73 µM in [3]; 20.2 µM in [4]; 12.7 µM in experiment [5]; 22.2 µM in [6]. For the same molecule, the TGI in [8] worked out at 17.7 µM.

As for `Cn1c(O)c(C=Nc2ccccc2[N+](=O)[O-])c(=O)n(C)c1=O`, the TGI in experiment [1], in experiment [2], in experiment [4], in [5], in experiment [6] and in [7] was greater than 100 µM throughout. For the same molecule, the TGI in experiment [8] and in experiment [9] was greater than 100 µM throughout.

`COc1cccc([C@H]2C/C(=N\NC(=O)C(=O)N[C@@H](C)c3ccccc3)c3ccccc3N2)c1`: the TGI is greater than 100 µM in [1]; greater than 100 µM in [2]; 0.0762 µM in [4]; greater than 100 µM in [5]; 0.0554 µM in experiment [7]; greater than 100 µM in experiment [8]. The GI50 was 0.0303 µM in experiment [5] and 0.0912 µM in experiment [8].

`Cc1ccc(/C=C/c2nnc(N/N=C/c3ccc4c(c3)OCO4)[nH]c2=O)cc1`: the TGI is 42.6 µM in [1]; greater than 100 µM in experiment [2]; 46.9 µM in experiment [4]; greater than 100 µM in experiment [5]; 31.2 µM in experiment [6]; 70.7 µM in experiment [7]. In addition, the TGI is 33.9 µM in experiment [8] and greater than 100 µM in [9].

With `COc1cc(CO)c(CC(=O)NCCCc2ccccc2)cc1OC`, the TGI in experiment [1], in [2], in [3], in [4], in [6] and in [7] was greater than 100 µM in each case. This molecule yielded a TGI in experiment [9] greater than 100 µM.

For `COc1ccc(CC(=O)N2CCC3(C)CC(=O)CC=C23)cc1OC` (stereo not given), the TGI in [1], in experiment [2], in experiment [3], in experiment [4], in experiment [5] and in [7] was greater than 100 µM each time. The TGI in experiment [8] and in [9] was greater than 100 µM each time.

`CN(C)CCCNc1ccc([N+](=O)[O-])c2nc3ccccc3c(N)c12`: the TGI worked out at 1.63 µM in [1]; 1.7 µM in experiment [2]; 1.53 µM in experiment [4]; 2.29 µM in [5]; 2.27 µM in experiment [7]; 4.92 µM in experiment [8]. The TGI in [9] came to 2.26 µM.

With `Cc1cc(N(CCC#N)CCC#N)ccc1/C(N=Nc1ccc(C(=O)O)cc1)=N\NC(=O)c1cc(Cl)ccc1O`, the TGI in [2] was greater than 100 µM; in [4] it was greater than 100 µM; in experiment [5], 78.9 µM; in [6], 53.5 µM; in experiment [7], greater than 100 µM; in experiment [8], 42.3 µM. The TGI in experiment [9] was greater than 100 µM.
